Source: article PMC12250347, “Calcium-dependent pathway as a primary cause of hypoxic RGC damage in monkey retinal explants” (PLOS One, 2025)
“Also recorded” adds a separate entry of the source.

What was measured:
[1] = system: calpain 1 activation and proteolysis of α-spectrin; assay: Immunoblotting of retinal explants under hypoxia/reoxygenation; assay type: cell-based, rhesus macaques (Macaca mulatta); conditions: H16R8
Description: (§1) Retina explant culture was performed as described in our previous report, except for the induction of hypoxia. Briefly, a hypoxic chamber (Coy Laboratory Products, Grass Lake, MI, USA) was controlled at 0.3% oxygen with a 95% N2/5% CO2 gas mixture. Retinas were dissected into fan-shaped explants with 6 or 7 petals (> 5 mm) in HBSS. Each explant was placed with the RGC side facing up on a Millicell organotypic standing insert (0.4 μm, 30 mm diameter, MilliporeSigma) in six-well, culture plates. They were cultured for 2 hr at 37°C under 95% N2/5% CO2 in Neurobasal-A medium supplemented with B27, N2 supplements, 2 mM L-glutamine (Thermo Fisher Scientific, Waltham, MA, USA), and 100 μg/mL primocin (Invivogen, San Diego, CA, USA). Retinal explants were then chamber-cultured under hypoxic conditions for 16 hr in a culture medium with 0.5 mM glucose, under 0.3% oxygen. The retinas were then re-oxygenated for 8 hr in a culture medium with 5.5 mM glucose. Normoxic control retinas were cultured for 24 hr in a culture medium with 5.5 mM glucose. When present, calpain inhibitors (SNJ-1945, PD-151746, C2I, and ABT-957) and cathepsin inhibitors (Odanacatib and SID26681509) in 0.1% DMSO were used at the final concentration of 10 or 100 μM in the medium. BAPTA (Thermo Fisher Scientific) and BAPTA-AM (Thermo Fisher Scientific) were also used at a final concentration of 3 or 10 mM or a final concentration of 100 or 500 μM, respectively.
(§2) All inhibitors and BAPTA were treated simultaneously with hypoxia induction, and BAPTA-AM treatment was 2 hr before hypoxia induction.
Each retinal explant was sonicated in RIPA Lysis and Extraction Buffer (Thermo Fisher Scientific), with protease inhibitors cocktail (Complete Mini-EDTA-free; MilliporeSigma). Protein concentrations in lysates were measured by BCA assay (Pierce BCA Protein Assay Kit, Thermo Fisher Scientific) using bovine serum albumin as a standard. For immunoblotting, 5 μg of each sample was loaded and run on 4% to 12% gradient or 10% SDS-PAGE gels (NuPAGE Bis-Tris Protein Gels, Thermo Fisher Scientific) with 2-(N-morpholino)ethanesulfonic acid buffer or 3-(N-morpholino) propanesulfonic acid buffer (Thermo Fisher Scientific). Proteins were then electrotransferred to a polyvinylidene fluoride membrane (MilliporeSigma) at 100 V for 60 min or 1.5 hr. Membranes were then blocked with 5% skim milk in Tris-buffer saline (Bio-Rad Laboratories, Hercules, CA, USA) containing 0.05% Tween 20. Each membrane was probed with primary antibodies against α-spectrin (1:2000 dilution, Enzo Life Sciences, Farmingdale, NY, USA), SBDP150 (1:1000 dilution, Senju Pharmaceutical), calpain 1 (1:1000 dilution, Thermo Fisher Scientific), calpain 2 (1:500, GeneTex, Irvine, CA, USA), cathepsin K (1:500 dilution, Abcam), and β-actin (1:1000 dilution, Merck). For calpain 1, immunoreactivity was visualized using a secondary antibody conjugated to alkaline phosphatase and the AP Conjugate Substrate Kit (Bio-Rad Laboratories). For other proteins, immunoreactivities were visualized using secondary antibodies conjugated with rabbit (Santa Cruz Biotechnology) or mouse horseradish peroxidase enzyme (Cytiva, Wilmington, DE, USA) and ECL Plus detection reagents (Cytiva). Images of the membranes were captured with FluorChem FC2 imager (Cell Biosciences, Santa Clara, CA, USA). The conversion of pro-cathepsin K (38 kDa) to its mature form (27 kDa) was used as an indicator of cathepsin K activation.

[2] = system: RGCs in monkey retinal explants; assay: PI staining and RGC counting in retinal explants under hypoxia/reoxygenation; assay type: cell-based, rhesus macaques (Macaca mulatta)
Excerpt: Globes were obtained from rhesus macaques (Macaca mulatta) at 1–7 years of age from the Oregon National Primate Research Center (Beaverton, OR, USA). The wide range of ages was unavoidable because they became available from experiments that were unrelated to the present studies. These eyes were acceptable for the purpose of our experiments. The eyes were dissected within 5 hr after death, and excised eyes were soaked in cold Hanks’ balanced salt solution (HBSS; Corning, NY, USA) or Dulbecco’s phosphate-buffered saline (DPBS; Corning). Experimental animals were handled in accordance with the Research in Vision and Ophthalmology Statement for the Use of Animals in Ophthalmic and Vision Research and with the Guiding Principles in the Care and Use of Animals (Department of Health Education and Welfare Publication National Institutes of Health 80−23).
as §1, §2
To assess the disruption of membrane barrier function, propidium iodide (PI) was utilized. Following hypoxia/reoxygenation treatment, retinal explants were incubated for 20 min in a medium containing a final concentration of 2 μg/ml of PI. For quantitative analysis, the RGC marker, RNA-binding protein with multiple splicing (RBPMS) was used at a 1:100 dilution (PhosphoSolutions, Aurora, CO, USA). RBPMS-positive and PI-positive cells in the ganglion cell layer were counted in 2 images from 2 square areas (775 × 775 μm each) located 3–5 mm and 5–7 mm away from the tips of the fan-shaped retinal flat mounts. The percentage of PI-positive RGCs was calculated as [the number of PI and RBPMS-double positive cells/the number of all RBPMS-positive cells] × 100.

[3] = cathepsin inhibitor at 10 or 100 µM
[4] = 16 hr hypoxia/8 hr reoxygenation (H16R8), cathepsin inhibitor at 10 or 100 µM

| Compound | Effect on activation of calpain 1 and proteolysis of α-spectrin (immunoblot) [1, 3] | Effect on percentage of PI-positive RGCs [2, 4] | Effect on activation of calpain 1 and proteolysis of α-spectrin (immunoblot) ([1]; calpain inhibitors (SNJ-1945 100 µM)) | Effect on percentage of PI-positive RGCs ([2]; H16R8, calpain inhibitor at 100 µM) |
| --- | --- | --- | --- | --- |
| CC(C)(F)C[C@H](N[C@@H](c1ccc(-c2ccc(S(C)(=O)=O)cc2)cc1)C(F)(F)F)C(=O)NC1(C#N)CC1 [Odanacatib] | did not mitigate | did not reduce |  |  |
| CCc1ccccc1NC(=O)CSC(=O)NNC(=O)[C@H](Cc1c[nH]c2ccccc12)NC(=O)OC(C)(C)C [SID26681509] | did not mitigate | did not reduce |  |  |
| COCCOCCOC(=O)N[C@@H](CC(C)C)C(=O)N[C@@H](Cc1ccccc1)C(=O)C(=O)NC1CC1 [SNJ-1945] |  |  | effectively ameliorated; also recorded: inhibited the autolytic activation of calpain 1; also recorded: nearly completely inhibited calpain-induced proteolysis | significantly decreased; also recorded: demonstrated efficacy in reducing PI-positive RGCs |
